Data as given in patent US20180031580A1, “USE OF IGF-1 AS PROGNOSTIC FACTOR IN CALCIFICATION OF AORTIC VALVES” (THE ASAN FOUNDATION, priority 2015, published 2018).

Test system: aortic valve vascular smooth muscle tissue
Assay: ALP staining of aortic valve vascular smooth muscle tissue, osteocytogenesis level
Assay type: in vivo, mice
Conditions: wild-type or eNOS-deficient mice treated with IGF-1 alone; FIG. 2a
Procedure: Wild-type mice or eNOS-deficient mice which are animal models with the aortic valve calcification were treated with insulin-like growth factor type 1 (IGF-1) alone or treated with dipeptidyl-peptidase 4 (DPP-4) and IGF-1 at the same time. Then, ALP staining was performed on the aortic valve vascular smooth muscle tissue, thereby comparing the […] level of tissue (FIG. 2a). Here, the aortic valve vascular smooth muscle tissue of the wild-type mice treated with nothing or the eNOS-deficient mice was used as a control group.
FIG. 2a are an image and a graph showing verification of the effect of DPP-4 on an action of IGF-1 inhibiting osteocytogenesis in the aortic valve vascular smooth muscle tissue of the wild-type mice or the eNOS-deficient mice.

IGF-1: polypeptide having a size of about 7.5 kDa present in a plasma of mammals; SEQ ID NO: 1
osteocytogenesis of aortic valve vascular smooth muscle tissue (ALP staining): tended to be alleviated
